US20240101546A1, “HETEROARYL-ACETYLENES, PHARMACEUTICAL COMPOSITIONS THEREOF, AND THEIR THERAPEUTIC APPLICATIONS” (Eubulus Biotherapeutics Inc., priority 2020, published 2024)

These compounds were tested on lung cancer cell line NCI-H82 (assay: Cell proliferation assay, NCI-H82 (CELL-TITER GLO)). Conditions: Homo sapiens, NCI-H82, 72 h, NCI-H82 cells, 72 h incubation, cell viability by CELL-TITER GLO, top concentration 1 μM; read-out: EC50, Inhibition of NCl-H82 Cell Proliferation.
Format: cell-based
In short: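 NCI-H82 cells, 1,000 per well in RPMI1640, were treated after overnight plating with a 3-fold dilution series from 1 μM. Viability read by CellTiter-Glo luminescence after 72 h. EC50 derived from the curves.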

SMILES | EC50 [nM]
C#Cc1nc(NC(=O)N[C@@H](COC(N)=O)c2ccc(-c3cccc4c3cnn4C)cc2)cs1 [Compound A231, (R)-2-(3-(2-Ethynylthiazol-4-yl)ureido)-2-(4-(1-methyl-1H-indazol-4-yl)phenyl)-ethyl carbamate] | ≤ 200
C#Cc1nc(NC(=O)N[C@@H](COC(N)=O)c2ccc(C3CCCc4c3cnn4C)cc2)cs1 (stereo partly drawn) [Compound A232, (2R)-2-(3-(2-Ethynylthiazol-4-yl)ureido)-2-(4-(1-methyl-4,5,6,7-tetrahydro-1H-indazol-4-yl)phenyl)ethyl carbamate] | ≤ 200
C#Cc1nc(NC(=O)N[C@@H](COC(N)=O)c2ccc(C3=CCCc4c3cnn4C)cc2)cs1 [Compound A233, (R)-2-(3-(2-Ethynylthiazol-4-yl)ureido)-2-(4-(1-methyl-6,7-dihydro-1H-indazol-4-yl)phenyl)ethyl carbamate] | ≤ 200
C#Cc1nc(NC(=O)N[C@@H](COC(N)=O)c2ccc(-c3cccc(N4CCCC4)n3)cc2)cs1 [Compound A234, (R)-2-(3-(2-Ethynylthiazol-4-yl)ureido)-2-(4-(6-(pyrrolidin-1-yl)pyridin-2-yl)-phenyl)ethyl carbamate] | ≤ 200
C#Cc1nc(NC(=O)N[C@@H](COC(N)=O)c2ccc(-c3ccnc(N4CCCC4)c3)cc2)cs1 [Compound A235, (R)-2-(3-(2-Ethynylthiazol-4-yl)ureido)-2-(4-(2-(pyrrolidin-1-yl)pyridin-4-yl)-phenyl)ethyl carbamate] | ≤ 200
C#Cc1nc(NC(=O)N[C@@H](COC(N)=O)c2ccc(-c3cccc(C4(C#N)CC4)c3)cn2)cs1 [Compound A236, (R)-2-(5-(3-(1-Cyanocyclopropyl)phenyl)pyridin-2-yl)-2-(3-(2-ethynylthiazol-4-yl)ureido)ethyl carbamate] | ≤ 200
C#Cc1nc(NC(=O)NCC2CCC(c3cccc(C4(C#N)CC4)c3)CC2)cs1 (stereo not shown) [Compound A238, 1-((4-(3-(1-Cyanocyclopropyl)phenyl)cyclohexyl)methyl)-3-(2-ethynylthiazol-4-yl)urea] | ≤ 200
C#Cc1nc(NC(=O)NCC2CC=C(c3cccc(C4(C#N)CC4)c3)CC2)cs1 (stereo not shown) [Compound A239, 1-((3′-(1-Cyanocyclopropyl)-2,3,4,5-tetrahydro-[1,1′-biphenyl]-4-yl)methyl)-3-(2-ethynylthiazol-4-yl)urea] | ≤ 200
C#Cc1nc(NC(=O)NCC2CCN(c3cccc(C4(C#N)CC4)c3)CC2)cs1 [Compound A240, 1-((1-(3-(1-Cyanocyclopropyl)phenyl)piperidin-4-yl)methyl)-3-(2-ethynylthiazol-4-yl)urea] | ≤ 200
C#Cc1nccc(NC(=O)N[C@@H](CO)c2ccc(-c3cccc4ncsc34)cc2)n1 [Compound A241, (R)-1-(1-(4-(Benzo[d]thiazol-7-yl)phenyl)-2-hydroxyethyl)-3-(2-ethynyl-pyrimidin-4-yl)urea] | ≤ 200
C#Cc1nc(NC(=O)N2CCN(c3ccc(-c4cccc(N5CCCC5)c4)cc3)CC2)cs1 [Compound B15, N-(2-Ethynylthiazol-4-yl)-4-(3′-(pyrrolidin-1-yl)-[1,1′-biphenyl]-4-yl)piperazine-1-carboxamide] | ≤ 200
C#Cc1nc(NC(=O)N2CCN(c3ccc(-c4cccc5c4cnn5C)cc3)CC2)cs1 [Compound B18, N-(2-Ethynylthiazol-4-yl)-4-(4-(1-methyl-1H-indazol-4-yl)phenyl)piperazine-1-carboxamide] | ≤ 200
C#Cc1nc(NC(=O)N2CCN(c3ccc(-c4cccc5ncsc45)cc3)C[C@H]2CO)cs1 [Compound B23, (S)-4-(4-(Benzo[d]thiazol-7-yl)phenyl)-N-(2-ethynylthiazol-4-yl)-2-(hydroxy-methyl)piperazine-1-carboxamide] | ≤ 200
C#Cc1nc(NC(=O)N2CCN(c3ccc(-c4cccc5ncsc45)cc3)C[C@@H]2CO)cs1 [Compound B24, (R)-4-(4-(Benzo[d]thiazol-7-yl)phenyl)-N-(2-ethynylthiazol-4-yl)-2-(hydroxy-methyl)piperazine-1-carboxamide] | ≤ 200
C#Cc1nc(NC(=O)N2CCN(c3ccc(-c4c(C#N)ccc5nc(N)sc45)cc3)CC2)cs1 [Compound B25, 4-(4-(2-Amino-6-cyanobenzo[d]thiazol-7-yl)phenyl)-N-(2-ethynylthiazol-4-yl)-piperazine-1-carboxamide] | ≤ 200
C#Cc1nc(NC(=O)N2CCN(c3ccc(-c4cccc5nc(N)sc45)cc3)CC2)cs1 [Compound B27, 4-(4-(2-Aminobenzo[d]thiazol-7-yl)phenyl)-N-(2-ethynylthiazol-4-yl)piperazine-1-carboxamide] | ≤ 200
C#Cc1nc(NC(=O)N2CCN(c3ccc(-c4cccc5nnsc45)cc3)CC2)cs1 [Compound B28, 4-(4-(Benzo[d][1,2,3]thiadiazol-7-yl)phenyl)-N-(2-ethynylthiazol-4-yl)piperazine-1-carboxamide] | ≤ 200
C#Cc1nc(NC(=O)N2CCN(c3ccc(-c4cccc(N5CCCC5)c4)cc3)C[C@H]2CO)cs1 [Compound B52, (S)—N-(2-Ethynylthiazol-4-yl)-2-(hydroxymethyl)-4-(3′-(pyrrolidin-1-yl)-[1,1′-biphenyl]-4-yl)piperazine-1-carboxamide] | ≤ 200
C#Cc1nc(NC(=O)N2CCN(c3ccc(-c4cccc(N5CCCC5)c4)cc3C#N)C[C@@H]2CO)cs1 [Compound B53, (R)-4-(3-Cyano-3′-(pyrrolidin-1-yl)-[1,1′-biphenyl]-4-yl)-N-(2-ethynylthiazol-4-yl)-2-(hydroxymethyl)piperazine-1-carboxamide] | ≤ 200
C#Cc1nc(NC(=O)N2CCN(c3ccc(-c4cccc(N5CCCC5)c4)cc3)C[C@@H]2CO)cs1 [Compound B54, (R)—N-(2-Ethynylthiazol-4-yl)-2-(hydroxymethyl)-4-(3′-(pyrrolidin-1-yl)-[1,1′-biphenyl]-4-yl)piperazine-1-carboxamide] | ≤ 200
C#Cc1nc(NC(=O)N2CCN(c3ccc(-c4cccc(N5CCCC5)c4)cn3)C[C@@H]2CO)cs1 [Compound B56, (R)—N-(2-Ethynylthiazol-4-yl)-2-(hydroxymethyl)-4-(5-(3-(pyrrolidin-1-yl)-phenyl)pyridin-2-yl)piperazine-1-carboxamide] | ≤ 200
C#Cc1nc(NC(=O)N2CCN(c3ncc(-c4cccc5ncsc45)cc3C#N)C[C@@H]2CO)cs1 [Compound B59, (R)-4-(5-(Benzo[d]thiazol-7-yl)-3-cyanopyridin-2-yl)-N-(2-ethynylthiazol-4-yl)-2-(hydroxymethyl)piperazine-1-carboxamide] | ≤ 200
